Measured values published in patent US5459147A, “Substituted benzimidazolyl derivatives and pharmaceutical compositions containing these compounds” (Dr. Karl Thomae GmbH, priority 1992, dated 1995).

biological target: T1, Angiotensin II-receptor (Rattus norvegicus, UniProt P25095); test: Angiotensin II-receptor bonding; type: binding; details: rats lung homogenate; 50 pM [125I]-angiotensin II; 60 minutes at 37° C., pH 7.40
T1 construct: The tissue (rats lung) is homogenised in Tris-buffer; from tissue; host or cells: rat lung homogenate (washed 20,000×g pellet)
T1 sequence (P25095 1-359): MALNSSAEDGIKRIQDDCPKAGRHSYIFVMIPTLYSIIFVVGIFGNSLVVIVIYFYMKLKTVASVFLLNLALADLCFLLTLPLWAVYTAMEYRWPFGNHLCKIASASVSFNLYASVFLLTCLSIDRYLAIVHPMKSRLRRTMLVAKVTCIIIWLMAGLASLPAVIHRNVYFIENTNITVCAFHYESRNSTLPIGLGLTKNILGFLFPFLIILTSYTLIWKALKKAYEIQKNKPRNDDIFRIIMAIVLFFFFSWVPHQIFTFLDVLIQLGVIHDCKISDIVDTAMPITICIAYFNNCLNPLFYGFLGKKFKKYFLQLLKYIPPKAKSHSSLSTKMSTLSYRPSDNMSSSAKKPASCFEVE
Procedure: Description of method: Angiotensin II-receptor bonding
The tissue (rats lung) is homogenised in Tris-buffer (50 mMol Tris, 150 mMol NaCl, 5 mMol EDTA, pH 7.40) and centrifuged twice for 20 minutes at 20,000×g. The finished pellets are resuspended in incubating buffer (50 mMol Tris, 5 mMol MgCl2, 0.2% BSA, pH 7.40) 1:75, based on the moist weight of the tissue. Each 0.1 ml of homogenate is incubated for 60 minutes at 37° C. with 50 pM [^125 I]-angiotensin II (NEN, Dreieich, FRG) with increasing concentrations of the test substance in a total volume of 0.25 ml. Incubation is ended by rapid filtration through glass fiber filter mats. The filters are each washed with 4 ml of ice cold buffer (25 mMol Tris, 2.5 mMol MgCl2, 0.1% BSA, pH 7.40). The bound radioactivity is measured using a gamma-counter. The corresponding IC50 value is obtained from the dose-activity curve.

SMILES | IC50 [nM]
CCc1nc2c(C)cc(C)nc2n1Cc1ccc2c(c1)nc(-c1ccccc1)n2CC(=O)O [Substance A, 1-hydroxycarbonylmethyl-2-phenyl-5-[(2-ethyl-4,6-dimethyl-imidazo[4,5-b]pyridin-1-yl)-methyl]-benzimidazole-trihydrate] | 120
CCCc1nc2c(C)cc(-c3nc4ccccc4n3C)cc2n1Cc1ccc2nc(-c3ccccc3)n(CC(=O)O)c2c1 [Substance B, 1-hydroxycarbonylmethyl-2-phenyl-6-[(2-n-propyl-4-methyl-6-(1-methyl-benzimidazol-2-yl)-benzimidazol-1-yl)-methyl]-benzimidazole] | 23
CCCc1nc2c(C)cc(-c3nc4ccccc4n3C)cc2n1Cc1ccc2c(c1)nc(-c1ccccc1)n2Cc1nnn[nH]1 [Substance C, 1-[(1H-tetrazol-5-yl)-methyl]-2-phenyl-5-[(2-n-propyl-4-methyl-6-(1-methyl-benzimidazol-2-yl)-benzimidazol-1-yl)-methyl]-benzimidazole] | 2.3
